Measurements as given in the supplement of paper PMC10307832.

What was measured:
Test in all cases: relative viability (nuclei count vs DMSO), 5 days (fraction); higher = more cells survive
[1] = tested on: HCC-78
Method in brief: (§1)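 Cells from lung cancer lines were seeded into 1536-well plates and, one day later, dosed by pin tool. Treatments were either a single drug or a fixed dose of an anchor drug with five library-drug doses (not always all listed) in √10 steps. After 5 days, nuclei were stained in a one-step fixation (final 0.05% Triton X-100, 1% formaldehyde, 1 ug/ml Hoechst) and counted on 4× images, and relative viability is the treated-to-vehicle nuclei ratio, as the median of duplicate plates.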

[2] = tested on: PC-14
Method in brief: as §1

[3] = tested on: UMC-11
Method in brief: as §1

[4] = tested on: HCC-15
Method in brief: as §1

[5] = tested on: NCI-H2023
Method in brief: as §1

[6] = tested on: EPLC-272H
Method in brief: as §1

[7] = tested on: COR-L23
Method in brief: as §1

[8] = tested on: SW 1573
Method in brief: as §1

[9] = tested on: LC-2-ad
Method in brief: as §1

[10] = tested on: NCI-H1651
Method in brief: as §1

[11] = tested on: NCI-H2126
Method in brief: as §1

[12] = tested on: ABC-1
Method in brief: as §1

[13] = tested on: NCI-H1915
Method in brief: as §1

[14] = tested on: NCI-H1993
Method in brief: as §1

[15] = tested on: NCI-H358
Method in brief: as §1

[16] = tested on: NCI-H2085
Method in brief: as §1

[17] = tested on: NCI-H1355
Method in brief: as §1

[18] = tested on: NCI-H838
Method in brief: as §1

[19] = tested on: NCI-H2347
Method in brief: as §1

[20] = tested on: NCI-H650
Method in brief: as §1

[21] = tested on: NCI-H2342
Method in brief: as §1

[22] = tested on: LU99A
Method in brief: as §1

[23] = tested on: HARA
Method in brief: as §1

For `Oc1nc(-c2ccc(C(F)(F)F)cc2)nc2c1CSCC2` [XAV939] + COc1cc2c(Oc3ccc(NC(=O)C4(C(=O)Nc5ccc(F)cc5)CC4)cc3F)ccnc2cc1OCCCN1CCOCC1 [Foretinib] (partner 0.25 µM), the relative viability ([1]; first compound 0.08 µM) was 0.591, the relative viability ([1]; first compound 0.253 µM) was 0.552 and the relative viability ([1]; first compound 0.8 µM) was 0.552. For the same compound, the relative viability ([1]; first compound 2.53 µM) was 0.506, the relative viability ([2]; first compound 0.08 µM) was 0.945 and the relative viability ([2]; first compound 0.253 µM) was 0.869. It also gave a relative viability ([2]; first compound 0.8 µM) of 0.885, a relative viability ([2]; first compound 2.53 µM) of 0.905 and a relative viability ([3]; first compound 0.08 µM) of 1.13. For the same compound, the relative viability ([3]; first compound 0.253 µM) was 0.873, the relative viability ([3]; first compound 0.8 µM) was 0.978 and the relative viability ([3]; first compound 2.53 µM) was 0.8. For the same compound, the relative viability ([4]; first compound 0.08 µM) was 1.2, the relative viability ([4]; first compound 0.253 µM) was 0.984 and the relative viability ([4]; first compound 0.8 µM) was 1.05. It also gave a relative viability ([4]; first compound 2.53 µM) of 0.988, a relative viability ([5]; first compound 0.08 µM) of 0.847 and a relative viability ([5]; first compound 0.253 µM) of 0.756. The relative viability ([5]; first compound 0.8 µM) was 0.659, the relative viability ([5]; first compound 2.53 µM) was 0.514 and the relative viability ([6]; first compound 0.08 µM) was 0.808. The relative viability ([6]; first compound 0.253 µM) was 0.603, the relative viability ([6]; first compound 0.8 µM) was 0.672 and the relative viability ([6]; first compound 2.53 µM) was 0.548. The relative viability ([7]; first compound 0.08 µM) was 1.13, the relative viability ([7]; first compound 0.253 µM) was 0.96 and the relative viability ([7]; first compound 0.8 µM) was 0.948. The relative viability ([7]; first compound 2.53 µM) was 0.903, the relative viability ([8]; first compound 0.08 µM) was 1.2 and the relative viability ([8]; first compound 0.253 µM) was 0.816. The relative viability ([8]; first compound 0.8 µM) was 0.732, the relative viability ([8]; first compound 2.53 µM) was 0.788 and the relative viability ([9]; first compound 0.08 µM) was 1. The relative viability ([9]; first compound 0.253 µM) was 0.854, the relative viability ([9]; first compound 0.8 µM) was 0.911 and the relative viability ([9]; first compound 2.53 µM) was 0.843. The relative viability ([10]; first compound 0.08 µM) was 0.786, the relative viability ([10]; first compound 0.253 µM) was 0.705 and the relative viability ([10]; first compound 0.8 µM) was 0.826. For the same compound, the relative viability ([10]; first compound 2.53 µM) was 0.768, the relative viability ([11]; first compound 0.08 µM) was 1.1 and the relative viability ([11]; first compound 0.253 µM) was 0.989. The relative viability ([11]; first compound 0.8 µM) was 1.17, the relative viability ([11]; first compound 2.53 µM) was 0.725 and the relative viability ([12]; first compound 0.08 µM) was 1.16. It also gave a relative viability ([12]; first compound 0.253 µM) of 0.732, a relative viability ([12]; first compound 0.8 µM) of 0.935 and a relative viability ([12]; first compound 2.53 µM) of 0.635. The relative viability ([13]; first compound 0.08 µM) was 1.18, the relative viability ([13]; first compound 0.253 µM) was 1.11 and the relative viability ([13]; first compound 0.8 µM) was 1.08. It also gave a relative viability ([13]; first compound 2.53 µM) of 1.03, a relative viability ([14]; first compound 0.08 µM) of 0.753 and a relative viability ([14]; first compound 0.253 µM) of 0.7. For the same compound, the relative viability ([14]; first compound 0.8 µM) was 0.688, the relative viability ([14]; first compound 2.53 µM) was 0.65 and the relative viability ([15]; first compound 0.08 µM) was 0.722. It also gave a relative viability ([15]; first compound 0.253 µM) of 0.596, a relative viability ([15]; first compound 0.8 µM) of 0.622 and a relative viability ([15]; first compound 2.53 µM) of 0.6. For the same compound, the relative viability ([16]; first compound 0.08 µM) was 1.06, the relative viability ([16]; first compound 0.253 µM) was 1.11 and the relative viability ([16]; first compound 0.8 µM) was 0.772. For the same compound, the relative viability ([16]; first compound 2.53 µM) was 0.893, the relative viability ([17]; first compound 0.08 µM) was 0.946 and the relative viability ([17]; first compound 0.253 µM) was 0.839. For the same compound, the relative viability ([17]; first compound 0.8 µM) was 0.786, the relative viability ([17]; first compound 2.53 µM) was 0.619 and the relative viability ([18]; first compound 0.08 µM) was 1.01. For the same compound, the relative viability ([18]; first compound 0.253 µM) was 0.957, the relative viability ([18]; first compound 0.8 µM) was 0.931 and the relative viability ([18]; first compound 2.53 µM) was 0.575. The relative viability ([19]; first compound 0.08 µM) was 0.797, the relative viability ([19]; first compound 0.253 µM) was 0.803 and the relative viability ([19]; first compound 0.8 µM) was 0.786. It also gave a relative viability ([19]; first compound 2.53 µM) of 0.354, a relative viability ([20]; first compound 0.08 µM) of 1.16 and a relative viability ([20]; first compound 0.253 µM) of 0.991. The relative viability ([20]; first compound 0.8 µM) was 1.09, the relative viability ([20]; first compound 2.53 µM) was 0.857 and the relative viability ([21]; first compound 0.08 µM) was 1.08. The relative viability ([21]; first compound 0.253 µM) was 0.936, the relative viability ([21]; first compound 0.8 µM) was 0.932 and the relative viability ([21]; first compound 2.53 µM) was 0.529. It also gave a relative viability ([22]; first compound 0.08 µM) of 0.794, a relative viability ([22]; first compound 0.253 µM) of 0.815 and a relative viability ([22]; first compound 0.8 µM) of 0.744. It also gave a relative viability ([22]; first compound 2.53 µM) of 0.724, a relative viability ([23]; first compound 0.08 µM) of 1.03 and a relative viability ([23]; first compound 0.253 µM) of 0.79. It also gave a relative viability ([23]; first compound 0.8 µM) of 0.248 and a relative viability ([23]; first compound 2.53 µM) of 0.678.
